Assay [1] deals with panel of 60 human tumor cell lines. Put plainly: NCI standard human tumor cell line panel (60 cell lines). It counts as cell-based. As to conditions: for activity against human cancer cell lines: panel of human cancer cell lines employed by NCI. An excerpt:
Current research in the control of cancer in the United States is coordinated by the National Cancer Institute (NCI). To determine whether a substance has anti-cancer properties, the NCI has established a systematic protocol. […] The protocol, and the established statistical means for analyzing the results obtained by the standardized testing are fully described in the literature. See: Boyd, Dr. Michael R., Principles & Practice of Oncology, PPO Updates, Volume 3, Number 10, Oct. 1989, for an in depth description of the testing protocol; and Paull, K. D., "Display and Analysis of Patterns of Differential Activity of Drugs Against Human Tumor Cell Lines; Development of Mean Graph and COMPARE Algorithm", Journal of the National Cancer Institute Reports, Vol. 81, No. 14, Page 1088, Jul. 14, 1989 for a description of the methods of statistical analysis. Both of these references are incorporated herein by this reference thereto.

Assay [2] deals with P388 lymphocytic leukemia cell line. As to the kind of experiment: P388 lymphocytic leukemia (PS) cell line growth inhibition in vitro. It counts as cell-based, murine.
Assay [3] shares this test system. The note with it: first chemical study, Pettit et al., J. Am. Chem. Soc 1988; cited from earlier work.

Turning to `CC1[C@@H]2CC=C3C4CCC5Cc6nc7c(nc6C[C@@]5(C)C4CC(=O)[C@]32CO[C@@]1(O)C(O)CC(C)(C)O)CC1CCC2C3=C[C@H]4O[C@@]5(O[C@@](C)(CO)C[C@@H]5O)C(C)[C@@]4(O)[C@]3(C)[C@@H](O)CC2[C@]1(C)C7` (some centres unmarked) [Cephalostatin 9], the “activity against other NCI cell lines” value in assay [1] (other NCI cell lines) is listed as “confirmed active level”. The “activity against human cancer cell lines” value was “powerful inhibitors of various human tumor cell lines” in assay [1]; “very strong and selective activity” in assay [1] (listed as cephalostatin 9). Besides, the “activity against murine P388 lymphocytic leukemia (PS system)” value in assay [2] is reported as “confirmed active level”.

For `C[C@@H]1[C@]2(O[C@H]3C=C4[C@@H]5CC[C@H]6Cc7nc8c(nc7C[C@]6(C)[C@H]5C[C@@H](O)[C@]4(C)[C@]31O)C[C@@H]1CC[C@H]3C4=CC[C@@H]5[C@H](C)[C@@]6(OC[C@]45C(=O)C[C@@H]3[C@@]1(C)C8)OC(C)(C)C[C@H]6O)O[C@](C)(CO)C[C@H]2O` [cephalostatin 1], the “P388 ED50” value in assay [3] is listed as 10^-7 to 10^-9 μg/mL.

The record behind these values is US5583224A, “Isolation and elucidation of cephalostatin 7, 8 and 9” (Arizona Board of Regents acting on behalf of Arizona State …, priority 1993, dated 1996).
